Data as given in patent US11446347B2, “Antithrombotic composition comprising Angelica gigas Nakai extract” (Astrogenesis Co., Ltd., priority 2018, dated 2022).

Tested on: thrombus-induced mouse model
Assay: In-vivo antithrombotic test, Rota-rod, collagen/epinephrine thrombus-induced mouse model
Parameters: species or system ICR mice
Details: thrombus induced 90 min after drug, Rota-rod 24 rpm after 15 min
Method: As for the experimental animals, 5-week-old female ICR mice provided by YoungBio were stabilized in an animal laboratory at a temperature of 24±1° C., a humidity of 55±5% in a 12-hour day-night cycle for 1 week and used in the experiments.
The change in behavioral capacity was evaluated for the prepared thrombus-induced mouse model using Rota-rod, and the antithrombotic effect of the Angelica gigas Nakai extract was evaluated. The thrombus-induced mouse model was prepared as follows. A 6-week-old ICR mouse (about 20 to 25 g) stabilized as an experimental mouse was prepared, and subjected to Rota-rod training, and the reference value was created three times, and the rotation speed was set to 24 rpm, and objects withstanding without falling at a rotation speed of 300 or more were selected. […] After 15 minutes, Rota-rod testing was repeated 3 times (rotation speed: 24 rpm), and the difference in athletic performance was analyzed by the following Equation: Protection rate (%)=[(Total number of individuals−Number of killed or paralyzed individuals)/Total number of individuals]×100
Number of killed or paralyzed individuals: The number of individuals who fell at a rotation speed of 24 rpm or less in Rota-rod testing at a rotation speed of 150 or less)

Compound | Number of killed or paralyzed individuals / Number of total individuals (dose 100 mg/kg) | Protection (%) (dose 100 mg/kg) | Number of killed or paralyzed individuals / Number of total individuals (dose 10 mg/kg) | Protection (%) (dose 10 mg/kg)
CC(=O)Oc1ccccc1C(=O)O [ASA (Aspirin), acetylsalicylic acid] | 11/20 | 45 | – | –
CC(C)=CC(=O)O[C@H]1Cc2cc3ccc(=O)oc3cc2OC1(C)C [Decursin, decursin] | – | – | 11/18 | 38.9
CC1(C)Oc2cc3oc(=O)ccc3cc2C[C@@H]1O [Decursinol, decursinol] | – | – | 12/19 | 36.8
